# In patent US5955349A, “Compositions and methods for producing heterologous polypeptides in Pichia methanolica” (ZymoGenetics, Inc., priority 1996, dated 1999):
# Test system: P. methanolica cells (strain CBS6515, UV-mutagenized)
# Assay: Nystatin enrichment for auxotrophic mutants; titering of colony forming units versus control cells
# Details: 1 mg nystatin added to remainder (about 450 ml) of 500 ml culture in minimal broth with 5 g/L ammonium sulfate, one additional hour with shaking, versus untreated control cells
# Experimental: Large-scale mutagenesis was then carried out using a 2-second UV exposure to provide about 20% killing. Cells were plated at approximately 10^4 cells/plate onto eight YEPD plates that were supplemented with 100 mg/L each of uracil, adenine, and leucine, which were added to supplement the growth of potential auxotrophs having the cognate deficiencies. Following UV exposure the plates were wrapped in foil and incubated overnight at 30° C. The following day the colonies on the plates (~10^5 total) were resuspended in water and washed once with water. An amount of cell suspension sufficient to give an OD600 of 0.1-0.2 was used to inoculate 500 ml of minimal broth made with yeast nitrogen base without amino acids or ammonia, supplemented with 1% glucose and 400 μg/L biotin. The culture was placed in a 2.8 L baffled Bell flask and shaken vigorously overnight at 30° C. The following day the cells had reached an OD600 of ~1.0-2.0. The cells were pelleted and resuspended in 500 ml of minimal broth supplemented with 5 g/L ammonium sulfate. The cell suspension was placed in a 2.8 L baffled Bell flask and shaken vigorously at 30° C. for 6 hours. […] The cultures were incubated with shaking for an additional hour. The control and nystatin-treated cells were then harvested by centrifugation and washed with water three times. […]
structure (smiles),measurement,value
C[C@@H]1[C@H](O)[C@@H](C)/C=C/C=C/CC/C=C/C=C/C=C/C=C/C(O[C@H]2O[C@H](C)[C@@H](O)[C@H](N)[C@@H]2O)CC2O[C@](O)(CC(O)C(O)CCC(O)CC(O)CC(O)CC(=O)O[C@H]1C)CC(O)C2C(=O)O (stereo partly shown) [nystatin],"decrease in the number of viable cells (colony forming units), factor",10^4
